Assay results published in PubChem BioAssay AID330 (DTP/NCI, 2004).
Where “and” joins values, the source holds several entries; their conditions need not be identical. Identical values can stand only once. Toxic doses and inconclusive results are not listed. Rule for the calls: active = survival T/C of 150% or more; inactive = T/C below 125% in these data.

Test system: P388 leukemia ip, CD2F1 mice, survival T/C
Assay: NCI In Vivo Anticancer Drug Screen. Data for tumor model P388 Leukemia (intraperitoneal) in CD2F1 (CDF1) mice
Conditions: endpoint: median survival time, higher = longer survival
Procedure, shortened: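 Mice carrying the transplanted tumor received test compound or vehicle. Survival was recorded in each group, and the value is the treated-group measurement divided by that of the vehicle-treated control group.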

[1] = dose: 50.0 mg/kg/injection, schedule: Q01DX009 (ip), vehicle: Klucel (hydroxypropylcellulose) (HPC)
[2] = dose: 100.0 mg/kg/injection, schedule: Q01DX009 (ip), vehicle: Klucel (hydroxypropylcellulose) (HPC)
[3] = dose: 200.0 mg/kg/injection, schedule: Q01DX009 (ip), vehicle: Klucel (hydroxypropylcellulose) (HPC)
[4] = dose: 50.0 mg/kg/injection, schedule: Q01DX009 (ip), vehicle: saline with Tween-80
[5] = dose: 100.0 mg/kg/injection, schedule: Q01DX009 (ip), vehicle: saline with Tween-80
[6] = dose: 200.0 mg/kg/injection, schedule: Q01DX009 (ip), vehicle: saline with Tween-80
[7] = dose: 50.0 mg/kg/injection, schedule: Q01DX005 (ip), vehicle: Klucel (hydroxypropylcellulose) (HPC)
[8] = dose: 100.0 mg/kg/injection, schedule: Q01DX005 (ip), vehicle: Klucel (hydroxypropylcellulose) (HPC)
[9] = dose: 200.0 mg/kg/injection, schedule: Q01DX005 (ip), vehicle: Klucel (hydroxypropylcellulose) (HPC)
[10] = dose: 50.0 mg/kg/injection, schedule: Q01DX005 (ip), vehicle: saline with Tween-80
[11] = dose: 100.0 mg/kg/injection, schedule: Q01DX005 (ip), vehicle: saline with Tween-80
[12] = dose: 200.0 mg/kg/injection, schedule: Q01DX005 (ip), vehicle: saline with Tween-80
[13] = dose: 12.5 mg/kg/injection, schedule: Q01DX009 (ip), vehicle: saline with Tween-80
[14] = dose: 25.0 mg/kg/injection, schedule: Q01DX009 (ip), vehicle: saline with Tween-80

Measured: T/C

C=Cc1cc[n+](CC(=O)c2ccccc2)cc1
inactive: dose: 3.12 mg/kg/injection, schedule: Q01DX009 (ip), vehicle: saline 90 % of control | dose: 6.25 mg/kg/injection, schedule: Q01DX009 (ip), vehicle: saline 90 % of control | dose: 12.5 mg/kg/injection, schedule: Q01DX009 (ip), vehicle: saline 103 % of control and 90 % of control

CC(C)(OC(=O)c1ccc([N+](=O)[O-])cc1)C(=O)O
inactive: [1] 99 % of control | [2] 98 % of control | [3] 98 % of control

C(=C\c1ccccc1)/CN1CCN(C(c2ccccc2)c2ccccc2)CC1
inactive: [1] 97 % of control | [2] 94 % of control | [3] 90 % of control

Cc1cnn(C(C(=O)c2ccccc2)c2ccccc2)c1-c1ccccc1 (configuration not stated)
inactive: [1] 105 % of control | [2] 105 % of control | [3] 98 % of control

Cn1cnc([N+](=O)[O-])c1SCC(=O)O
inactive: [1] 108 % of control | [2] 122 % of control | [3] 96 % of control | dose: 400.0 mg/kg/injection, schedule: Q01DX009 (ip), vehicle: Klucel (hydroxypropylcellulose) (HPC) 103 % of control

C/C(=N\NC(=S)N1CCCCCC1)c1ccc[nH]1
inactive: dose: 100.0 mg/kg/injection, schedule: Q04DX002 (ip), vehicle: Klucel (hydroxypropylcellulose) (HPC) 111 % of control | dose: 200.0 mg/kg/injection, schedule: Q04DX002 (ip), vehicle: Klucel (hydroxypropylcellulose) (HPC) 102 % of control | dose: 400.0 mg/kg/injection, schedule: Q04DX002 (ip), vehicle: Klucel (hydroxypropylcellulose) (HPC) 107 % of control

CC(C)N1CCC(Oc2ccc3ccccc3n2)C1 (configuration not stated)
inactive: [1] 100 % of control | [2] 91 % of control

CN(C)c1ccc(C=C2c3ccccc3C(=O)c3ccccc32)c(Cl)c1
inactive: [4] 100 % of control | [5] 91 % of control | [6] 94 % of control

CSN(C)C(=O)Nc1cc(Cl)ccc1Cl
inactive: dose: 100.0 mg/kg/injection, schedule: Q04DX003 (ip), vehicle: saline 107 % of control | dose: 200.0 mg/kg/injection, schedule: Q04DX003 (ip), vehicle: saline 92 % of control | dose: 400.0 mg/kg/injection, schedule: Q04DX003 (ip), vehicle: saline 92 % of control

C[CH2][Ge]([CH2]C)[CH2]C.C[CH2][Ge]([CH2]C)[CH2]C(=O)OC
inactive: [7] 99 % of control | [8] 100 % of control | [9] 100 % of control

COC(=O)/C=C/c1cccn1C(=O)c1c(Cl)cccc1Cl
inactive: [10] 97 % of control | [11] 98 % of control | [12] 87 % of control

O=c1c(N=Nc2ccccc2)c(O)n(-c2ccc(Cl)cc2)c(=S)n1-c1ccc(Br)cc1
inactive: dose: 100.0 mg/kg/injection, schedule: Q04DX002 (ip), vehicle: saline with Tween-80 102 % of control | dose: 200.0 mg/kg/injection, schedule: Q04DX002 (ip), vehicle: saline with Tween-80 103 % of control | dose: 400.0 mg/kg/injection, schedule: Q04DX002 (ip), vehicle: saline with Tween-80 94 % of control

CCCCCCCCCCCCCCCC(=O)OCC(COP(=O)(O)OC1CCC2(C)C(=CCC3C2CCC2(C)C(C(C)CCCC(C)C)CCC32)C1)OC(=O)CCCCCCCCCCCCCCC (configuration not stated)
inactive: dose: 100.0 mg/kg/injection, schedule: Q01DX001 (ip), vehicle: Klucel (hydroxypropylcellulose) (HPC) 97 % of control | dose: 200.0 mg/kg/injection, schedule: Q01DX001 (ip), vehicle: Klucel (hydroxypropylcellulose) (HPC) 99 % of control | dose: 400.0 mg/kg/injection, schedule: Q01DX001 (ip), vehicle: Klucel (hydroxypropylcellulose) (HPC) 96 % of control

CCCCCCCCCCCCCCCC[N+]1([O-])CCOCC1
inactive: [13] 105 % of control | [14] 102 % of control | [4] 102 % of control

O=c1[nH]c(=S)[nH]nc1/C=C/C=C/c1ccccc1
inactive: dose: 100.0 mg/kg/injection, schedule: Q01DX001 (ip), vehicle: saline 96 % of control | dose: 200.0 mg/kg/injection, schedule: Q01DX001 (ip), vehicle: saline 97 % of control | dose: 400.0 mg/kg/injection, schedule: Q01DX001 (ip), vehicle: saline 105 % of control

O=[N+]([O-])c1c(Br)sc(Br)c1[N+](=O)[O-]
inactive: [13] 104 % of control | [14] 95 % of control | [4] 95 % of control

CC(=O)N=c1c(Br)cc(Br)c(C)n1O
inactive: [7] 93 % of control | [8] 99 % of control | [9] 102 % of control

CC(C)n1cc(C(C)(C)C)nc1SSc1nc(C(C)(C)C)cn1C(C)C
inactive: [7] 100 % of control | [8] 96 % of control

CCCc1nc(N)[nH]c(=O)c1I
inactive: [7] 88 % of control | [8] 95 % of control | [9] 106 % of control

ClCC[N-]CC[N-]CCCl.ClCC[N-]CC[N-]CCCl.[O-][Cl+3]([O-])([O-])O.[Zn+2]
inactive: dose: 5.0 mg/kg/injection, schedule: Q04DX003 (ip), vehicle: saline with Tween-80 102 % of control | dose: 10.0 mg/kg/injection, schedule: Q04DX003 (ip), vehicle: saline with Tween-80 111 % of control

COCCn1c(=O)[nH]c(=O)c2c(Nc3ccccc3)snc21
inactive: dose: 25.0 mg/kg/injection, schedule: Q01DX009 (ip), vehicle: saline 100 % of control and 93 % of control | dose: 50.0 mg/kg/injection, schedule: Q01DX009 (ip), vehicle: saline 98 % of control and 99 % of control and 89 % of control | [5] 95 % of control | dose: 100.0 mg/kg/injection, schedule: Q01DX009 (ip), vehicle: saline 98 % of control and 112 % of control and 97 % of control | [6] 100 % of control | dose: 200.0 mg/kg/injection, schedule: Q01DX009 (ip), vehicle: saline 99 % of control

COc1ccc(N(C)C(=S)c2ccccc2)cc1
inactive: [7] 103 % of control | [8] 96 % of control | [9] 92 % of control

COC(=O)CC1(C(=O)OC)c2ccc3c(C(=O)C(F)(F)F)cccc3c2N2CCCC21 (configuration not stated)
inactive: dose: 100.0 mg/kg/injection, schedule: Q04DX002 (ip), vehicle: saline 101 % of control | dose: 200.0 mg/kg/injection, schedule: Q04DX002 (ip), vehicle: saline 102 % of control | dose: 400.0 mg/kg/injection, schedule: Q04DX002 (ip), vehicle: saline 102 % of control

COc1ccc(C(c2c(O)c3ccccc3oc2=O)N2CCOCC2)cc1 (configuration not stated)
inactive: dose: 15.0 mg/kg/injection, schedule: Q01DX005 (ip), vehicle: saline with Tween-80 99 % of control | dose: 30.0 mg/kg/injection, schedule: Q01DX005 (ip), vehicle: saline with Tween-80 97 % of control | dose: 60.0 mg/kg/injection, schedule: Q01DX005 (ip), vehicle: saline with Tween-80 100 % of control and 94 % of control

CCCCSP(Oc1ccccc1)SCCCC
inactive: dose: 25.0 mg/kg/injection, schedule: Q04DX003 (ip), vehicle: Klucel (hydroxypropylcellulose) (HPC) 100 % of control | dose: 50.0 mg/kg/injection, schedule: Q04DX003 (ip), vehicle: Klucel (hydroxypropylcellulose) (HPC) 108 % of control | dose: 100.0 mg/kg/injection, schedule: Q04DX003 (ip), vehicle: Klucel (hydroxypropylcellulose) (HPC) 109 % of control

Oc1ccc(N=Nc2c(-c3ccccc3)nn(C(=S)S)c2-c2ccccc2)cc1
inactive: [10] 103 % of control | [11] 102 % of control | [12] 101 % of control

O=C1CC2OCC=C3CN4CCC56c7ccccc7N1C5C2C3CC46 (configuration not stated) (tested in a mixture with another compound)
inactive: dose: 0.38 mg/kg/injection, schedule: Q01DX009 (ip), vehicle: saline + alcohol 100 % of control | dose: 0.75 mg/kg/injection, schedule: Q01DX009 (ip), vehicle: saline + alcohol 109 % of control | dose: 1.5 mg/kg/injection, schedule: Q01DX009 (ip), vehicle: saline + alcohol 95 % of control
